The source of these data is patent publication US9242981B2, “Fused pyrazole derivatives as novel ERK inhibitors” (Merck Sharp & Dohme Corp., priority 2010, dated 2016).

The IC50 is the concentration that gives 50% inhibition. A higher IC50 goes with weaker potency in that assay.

For this experiment, the target named is Mouse ERK2 protein (Mus musculus (Mouse), UniProt P63085). Nature of the experiment: Coupled MEK1/ERK2 IMAP assay or Active ERK2 IMAP assay. It is filed as biochemical. The note with it: Table 1, class symbols, 30 μM ATP. The method, then:
14 μl of kinase buffer (10 mM Tris.HCl pH 7.2, 10 mM MgCl2, 0.01% Tween-20, 1 mM DTT) containing 0.4 ng unphosphorylated Mouse ERK2 protein is added to each well of a black 384-well assay plate. […] DMSO concentration during initial incubation is 6.7%. […] DMSO concentration during ERK activation was 4%. After one hour, reactions are terminated by addition of 60 μl IMAP detections beads in binding buffer (Molecular Devices). Binding is allowed to equilibrate for 30 minutes before reading the plate on an LJL Analyst Fluorescence Polarization plate reader.
Activated ERK2 activity was also determined in the IMAP assay format using the procedure outlined above. […] Reactions proceeded for 30 minutes before termination by addition of […] IMAP detection beads in binding buffer. Plates were read as above after 30 minute binding equilibration.

Sequence of Mouse ERK2 protein (P63085 whole entry): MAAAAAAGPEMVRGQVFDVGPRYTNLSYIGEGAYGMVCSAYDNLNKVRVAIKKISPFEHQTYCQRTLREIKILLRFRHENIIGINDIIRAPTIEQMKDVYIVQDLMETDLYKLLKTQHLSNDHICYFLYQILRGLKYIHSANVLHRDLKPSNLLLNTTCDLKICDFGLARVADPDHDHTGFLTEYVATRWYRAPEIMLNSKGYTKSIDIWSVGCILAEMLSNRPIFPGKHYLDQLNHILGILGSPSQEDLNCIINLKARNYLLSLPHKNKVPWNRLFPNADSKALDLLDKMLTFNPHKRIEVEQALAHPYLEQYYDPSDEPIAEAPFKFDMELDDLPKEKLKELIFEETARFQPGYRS

Regarding `O=C(Cc1ccccc1-c1cccnc1)N1CCc2[nH]nc(-c3ccncc3)c2C1` [Compound 33, 4,5,6,7-tetrahydro-3-(4-pyridinyl)-5-[[2-(3-pyridinyl)phenyl]acetyl]-1H-pyrazolo[4,3-c]pyridine], the half-inhibitory concentration (IC50) is 101 to 1000 nM.
For `O=C(C(CO)c1ccccc1)N1CCc2[nH]nc(-c3ccncc3)c2C1` (stereo not drawn) [Compound 38, 1,4,6,7-tetrahydro-gamma-oxo-beta-phenyl-3-(4-pyridinyl)-5H-pyrazolo[4,3-c]pyridine-5-propanol], the IC50 fell in the range of 1000 to 100000 nM.
Molecule `O=C(C1CCCc2ccccc21)N1CCc2[nH]nc(-c3ccncc3)c2C1` (centres unmarked) [Compound 39, 4,5,6,7-tetrahydro-3-(4-pyridinyl)-5-[(1,2,3,4-tetrahydro-1-naphthalenyl)carbonyl]-1H-pyrazolo[4,3-c]pyridine] returned an IC50 of 1000 to 100000 nM.
In the case of `CC(C(=O)N1CCc2[nH]nc(-c3ccncc3)c2C1)c1ccccc1` (centres unmarked) [Compound 40, 4,5,6,7-tetrahydro-5-(1-oxo-2-phenylpropyl)-3-(4-pyridinyl)-1H-pyrazolo[4,3-c]pyridine], the IC50 lay within 1000 to 100000 nM.
In turn, `CC(C(=O)N1CCc2[nH]nc(-c3ccncc3)c2C1)c1ccccc1Cl` (centres unmarked) [Compound 41, 5-[2-(2-chlorophenyl)-1-oxopropyl]-4,5,6,7-tetrahydro-3-(4-pyridinyl)-1H-pyrazolo[4,3-c]pyridine] yielded an IC50 of 1000 to 100000 nM.
In turn, `CCn1cc(Cl)c(NC(=O)N2CCc3[nH]nc(-c4ccncc4)c3C2)n1` [Compound 42, N-(4-chloro-1-ethyl-1H-pyrazol-3-yl)-1,4,6,7-tetrahydro-3-(4-pyridinyl)-5H-pyrazolo[4,3-c]pyridine-5-carboxamide] showed an IC50 of 1000 to 100000 nM.
Consider `O=C(NC1CNCC(c2ccccc2)C1)N1CCc2[nH]nc(-c3ccncc3)c2C1` (centres unmarked) [Compound 47, 1,4,6,7-tetrahydro-N-(5-phenyl-3-piperidinyl)-3-(4-pyridinyl)-5H-pyrazolo[4,3-c]pyridine-5-carboxamide], for which the IC50 was less than 20 nM.
Next, `CN1CC(NC(=O)N2CCc3[nH]nc(-c4ccncc4)c3C2)CC(c2ccccc2)C1` (centres unmarked) [Compound 49, 1,4,6,7-tetrahydro-N-(1-methyl-5-phenyl-3-piperidinyl)-3-(4-pyridinyl)-5H-pyrazolo[4,3-c]pyridine-5-carboxamide]: less than 20 nM; `O=C(CC1CCCNC1)N1CCc2[nH]nc(-c3ccncc3)c2C1` (centres unmarked) [Compound 51, 4,5,6,7-tetrahydro-5-(3-piperidinylacetyl)-3-(4-pyridinyl)-1H-pyrazolo[4,3-c]pyridine]: 101 to 1000 nM.
`CC1CC(NC(=O)N2CCc3[nH]nc(-c4ccncc4)c3C2)CN(Cc2ccccc2F)C1` (centres unmarked) [Compound 52, N-[1-[(2-fluorophenyl)-methyl]-5-methyl-3-piperidinyl]-1,4,6,7-tetrahydro-3-(4-pyridinyl)-5H-pyrazolo[4,3-c]pyridine-5-carboxamide]: the IC50 was 21 to 100 nM.
Under `O=C(N[C@@H]1CCCN(Cc2nccs2)C1)N1CCc2[nH]nc(-c3ccncc3)c2C1` [Compound 55, 1,4,6,7-tetrahydro-3-(4-pyridinyl)-N-[1-(2-thiazolylmethyl)-3(R)-piperidinyl]-5H-pyrazolo[4,3-c]pyridine-5-carboxamide] stands 21 to 100 nM.
`O=C(N[C@@H]1CCCN(Cc2ccsc2)C1)N1CCc2[nH]nc(-c3ccncc3)c2C1` [Compound 56, 1,4,6,7-tetrahydro-3-(4-pyridinyl)-N-[1-(3-thienylmethyl)-3(R)-piperidinyl]-5H-pyrazolo[4,3-c]pyridine-5-carboxamide] gave an IC50 of less than 20 nM.
The molecule `O=C(N[C@@H]1CCCN(Cc2ncc[nH]2)C1)N1CCc2[nH]nc(-c3ccncc3)c2C1` [Compound 63, 1,4,6,7-tetrahydro-N-[1-(1H-imidazoL-2-ylmethyl)-3(R)-piperidinyl]-3-(4-pyridinyl)-5H-pyrazolo[4,3-c]pyridine-5-carboxamide] registered an IC50 of 101 to 1000 nM.
On to `Cn1cnc(CN2CCC[C@@H](NC(=O)N3CCc4[nH]nc(-c5ccncc5)c4C3)C2)c1` [Compound 64, 1,4,6,7-tetrahydro-N-[1-[(1-methyl-1H-imidazoL-4-yl)methyl]-3(R)-piperidinyl]-3-(4-pyridinyl)-5H-pyrazolo[4,3-c]pyridine-5-carboxamide], for which the IC50 is 101 to 1000 nM.
The molecule `Cn1ccc(CN2CCC[C@@H](NC(=O)N3CCc4[nH]nc(-c5ccncc5)c4C3)C2)n1` [Compound 65, 1,4,6,7-tetrahydro-N-[1-[(1-methyl-1H-pyrazol-3-yl)methyl]-3(R)-piperidinyl]-3-(4-pyridinyl)-5H-pyrazolo[4,3-c]pyridine-5-carboxamide] came in with an IC50 of 101 to 1000 nM.
As to `O=C(N[C@@H]1CCCN(Cc2c(F)cccc2Cl)C1)N1CCc2[nH]nc(-c3ccncc3)c2C1` [Compound 66, N-[1-[(2-chloro-6-fluorophenyl)methyl]-3(R)-piperidinyl]-1,4,6,7-tetrahydro-3-(4-pyridinyl)-5H-pyrazolo[4,3-c]pyridine-5-carboxamide], the IC50 was less than 20 nM.
Under `O=C(N[C@@H]1CCCN(Cc2ccccc2C(F)(F)F)C1)N1CCc2[nH]nc(-c3ccncc3)c2C1` [Compound 67, 1,4,6,7-tetrahydro-3-(4-pyridinyl)-N-[1-[[2-(trifluoromethyl)phenyl]meth-yl]-3(R)-piperidinyl]-5H-pyrazolo[4,3-c]pyridine-5-carboxamide] stands 21 to 100 nM.
Turning to `O=C(N[C@@H]1CCCN(Cc2c(F)cccc2C(F)(F)F)C1)N1CCc2[nH]nc(-c3ccncc3)c2C1` [Compound 68, N-[1-[[2-fluoro-6-(trifluoromethyl)phenyl]meth-yl]-3(R)-piperidinyl]-1,4,6,7-tetrahydro-3-(4-pyridinyl)-5H-pyrazolo[4,3-c]pyridine-5-carboxamide], the IC50 is 21 to 100 nM.
The molecule `COc1ccccc1CN1CCC[C@@H](NC(=O)N2CCc3[nH]nc(-c4ccncc4)c3C2)C1` [Compound 70, 1,4,6,7-tetrahydro-N-[1-[(2-methoxyphenyl)methyl]-3(R)-piperidinyl]-3-(4-pyridinyl)-5H-pyrazolo[4,3-c]pyridine-5-carboxamide] registered an IC50 of 21 to 100 nM.
Molecule `COC(=O)c1ccccc1CN1CCC[C@@H](NC(=O)N2CCc3[nH]nc(-c4ccncc4)c3C2)C1` [Compound 72, methyl 2-[[3(R)-[[[1,4,6,7-tetrahydro-3-(4-pyridinyl)-5H-pyrazolo[4,3-c]pyridin-5-yl]carbonyl]amino]-1-piperidinyl]methyl]benzoate] came in with an IC50 of 21 to 100 nM.
As for `COc1cccc(OC)c1CN1CCC[C@@H](NC(=O)N2CCc3[nH]nc(-c4ccncc4)c3C2)C1` [Compound 73], the 50% inhibitory concentration (IC50) fell in the range of 101 to 1000 nM.
`O=C(N[C@@H]1CCCN(Cc2ccccc2N2CCOCC2)C1)N1CCc2[nH]nc(-c3ccncc3)c2C1` [Compound 74, 1,4,6,7-tetrahydro-N-[1-[[2-(4-morpholinyl)phenyl]-methyl]-3(R)-piperidinyl]-3-(4-pyridinyl)-5H-pyrazolo[4,3-c]pyridine-5-carboxamide] came in with a 50% inhibitory concentration (IC50) of 101 to 1000 nM.
`Cc1cc(-c2n[nH]c3c2CN(C(=O)N[C@@H]2CCCN(Cc4c(F)cccc4F)C2)CC3)ccn1` [Compound 81, N-[1-[(2,6-difluorophenyl)-methyl]-3(R)-piperidinyl]-1,4,6,7-tetrahydro-3-(2-methyl-4-pyridinyl)-5H-pyrazolo[4,3-c]pyridine-5-carboxamide] had an IC50 of 21 to 100 nM.
Regarding `COC(=O)C1CC(NC(=O)N2CCc3[nH]nc(-c4ccnc(C)c4)c3C2)CN(Cc2c(F)cccc2F)C1` (centres unmarked) [Compound 82, methyl 1-[(2,6-difluorophenyl)methyl]-5-[[[1,4,6,7-tetrahydro-3-(2-methyl-4-pyridinyl)-5H-pyrazolo[4,3-c]pyridin-5-yl]carbonyl]amino]-3-piperidinecarboxylate], the IC50 is 101 to 1000 nM.
`Cc1cc(-c2n[nH]c3c2CN(C(=O)NC2CC(C(=O)O)CN(Cc4c(F)cccc4F)C2)CC3)ccn1` (centres unmarked) [Compound 83, 1-[(2,6-difluorophenyl)-methyl]-5-[[[1,4,6,7-tetrahydro-3-(2-methyl-4-pyridinyl)-5H-pyrazolo[4,3-c]pyridin-5-yl]carbonyl]amino]-3-piperidinecarboxylic acid] displayed an IC50 of 101 to 1000 nM.
Consider `Cc1cc(-c2n[nH]c3c2CN(C(=O)NC2CCCN(Cc4c(F)cccc4Cl)C2)CC3)ccn1` (centres unmarked) [Compound 85, N-[1-[(2-chloro-6-fluorophenyl)methyl]-3-piperidinyl]-1,4,6,7-tetrahydro-3-(2-methyl-4-pyridinyl)-5H-pyrazolo[4,3-c]pyridine-5-carboxamide], for which the IC50 is less than 20 nM.
With `Cc1cc(-c2n[nH]c3c2CN(C(=O)NC2CC(CO)CN(Cc4c(F)cccc4F)C2)CC3)ccn1` (centres unmarked) [Compound 86, N-[1-[(2,6-difluorophenyl)-methyl]-5-(hydroxymethyl)-3-piperidinyl]-1,4,6,7-tetrahydro-3-(2-methyl-4-pyridinyl)-5H-pyrazolo[4,3-c]pyridine-5-carboxamide], the IC50 was 21 to 100 nM.
The molecule `Cc1cc(-c2n[nH]c3c2CN(C(=O)NC2(C)CCCN(Cc4c(F)cccc4F)C2)CC3)ccn1` (centres unmarked) [Compound 87, N-[1-[(2,6-difluorophenyl)-methyl]-3-methyl-3-piperidinyl]-1,4,6,7-tetrahydro-3-(2-methyl-4-pyridinyl)-5H-pyrazolo[4,3-c]pyridine-5-carboxamide] gave an IC50 of 101 to 1000 nM.
Next, `Cc1cc(-c2n[nH]c3c2CN(C(=O)NC2(C)CCCN(Cc4csc5ccccc45)C2)CC3)ccn1` (centres unmarked) [Compound 88, N-[1-(benzo[b]thien-3-ylmethyl)-3-methyl-3-piperidinyl]-1,4,6,7-tetrahydro-3-(2-methyl-4-pyridinyl)-5H-pyrazolo[4,3-c]pyridine-5-carboxamide]: 101 to 1000 nM.
